From patent US20230257315A1, “AGRICULTURE COMPOSITIONS AND AP[…] MINERAL COMPOUNDS” (Ralco Nutrition, Inc., priority 2012, published 2023)

How the values were obtained:
corn [1] = details: 5 g elemental cobalt per acre in-furrow
From the text: Various cobalt compounds were applied in-furrow to natural soil with corn seeded, then grown in greenhouse conditions. The cobalt compounds were applied at a rate of 5 g elemental cobalt per acre and compared to an untreated control. The compounds included: cobalt acetate, cobalt carbonate, cobalt gluconate and cobalt sulfate. The trial consisted of four replicates in a randomized complete block design. The plants were harvested after 53 days of growth and measured for plant health characteristics and nutrient uptake.

field corn = assay: Cobalt lactate in-furrow with field corn, greenhouse, nutrient uptake; type: in vivo; details: 5 g cobalt per acre in-furrow, 53 days of growth
corn [2] = assay: Greenhouse study of absorptivity of cobalt lactate into corn vegetative tissue with and without glyphosate; type: in vivo; details: foliar spray at V4-V6, day 6
Experimental: A greenhouse study was completed to evaluate the absorptivity of cobalt lactate into corn vegetative tissue when applied with and without glyphosate herbicide. The corn seeds were potted in natural soil and allowed to grow to the V4-V6 growth stage. At this time the plants were treated with foliar sprays of cobalt lactate, and cobalt lactate with glyphosate and ammonium sulfate (AMS). The glyphosate was commercially available and used at the recommended use rate of 1 qt per acre. The AMS was applied as described in Example 6. Six replicate vegetative portions of the plants were sampled at days 1 and 6 after the application and analyzed for cobalt content.
The initial absorption rate was slowed with the addition of glyphosate and AMS to the cobalt lactate solution.

[3] = 53 days of growth, vs untreated control

CC(=O)[O-].CC(=O)[O-].[Co+2] [cobalt acetate]
increase in the vegetative N content (corn [1]; [3]): 1.7%
increase in vegetative K concentration (corn [1]; [3]): 9.3%
tissue concentration increase Fe (corn [1]; vegetative tissue, 53 days): 20.9%
tissue concentration increase Mn (corn [1]; vegetative tissue, 53 days): 37.5%
tissue concentration increase Zn (corn [1]; vegetative tissue, 53 days): 9.4%

O=C([O-])[O-].[Co+2] [cobalt carbonate]
increase in root mass (corn [1]; [3]): 6.7%
vegetative wet weight (corn [1]; [3]): slight increase

cobalt gluconate
increase in vegetative K concentration (corn [1]; [3]): 2.3%

cobalt lactate
increase of nitrogen within the vegetation over the untreated control (field corn): 4.6%
increase of potassium within the vegetation over the untreated control (field corn): 7.8%
nitrogen concentration increase within the root over the untreated control (field corn): 2.2%
phosphorus concentration increase within the root over the untreated control (field corn): 4.2%
phosphorus content within the vegetation versus untreated control (field corn): no difference
potassium concentration increase within the root over the untreated control (field corn): 12.2%
cobalt concentration in vegetative tissue after 6 days (corn [2]): consistent between the two treatments
